Values quoted from earlier work in US20170151152A1, “COMBINATION OF N-ACETYL GLUCOSAMINE WITH ABSCISIC ACID AND USES THEREOF” (priority 2015, published 2017).

Test system: cell cultures
Conditions: 1%, 3%, 5% of 30 μL of NAG

In the case of `CC(=O)N[C@H]1C(O)O[C@H](CO)[C@@H](O)[C@@H]1O` (stereo partly shown) [NAG, N-acetyl glucosamine], the “melanin in cell cultures” value is listed as “dose dependent decrease in melanin”.
